The values that follow come from patent publication EP4653017A1, “ANTIBODY-DRUG CONJUGATE AND USE THEREOF” (Tyligand Bioscience (Shanghai) Limited, priority 2023, dated 2024).

Assay [1] concerns CT26 cells. In words: Inhibition of CT26 cell proliferation (CellTiter-Glo). It counts as cell-based, mouse. How it is done:
CT26 cells are a mouse colorectal cancer cell line. In this experiment, CellTiter-Glo Luminescence Cell Viability Assay kit from Promega was used to assess the inhibitory activity of the compounds on CT26 cell proliferation.
When CT26 cells (ATCC #CRL-2638) were revived, the cryovial was rapid shaken in a 37°C water bath to thaw with 1 min. The thawed cell suspension was mixed well with DMEM medium (GE Company, Cat. No. #SH30243.01) containing 10% FBS (GIBCO, Cat. No. #10099-141), centrifuged at 1000 rpm for 5 min, and the supernatant was discarded. The cell pellet was resuspended in 5 mL of complete medium (DMEM medium containing 10% FBS), placed in a cell culture flask with a bottom area of 25 cm^2, and cultured in a cell incubator at 37°C, 5% CO2, and 95% humidity. Passage was performed when the confluence rate of cells reached 70%~80%. Referring to the cell passage method at plating, all cells in the flask were transferred to a 15 mL centrifuge tube, centrifuged at 1000 rpm for 5 minutes, and the supernatant was discarded. The cell pellet was resuspended in 5 mL of new complete medium, 1 mL was placed in a cell culture flask with a bottom area of 25 cm^2, and 4 mL of fresh complete medium was added to continue the culture. Plating was performed when the cell confluence rate of cells reached 70% to 80% again. Referring to the cell passage method at plating, 1/5 of the cell suspension was maintained and the remaining 4/5 of the cell suspension was placed in a 15 mL centrifuge tube. The cells were centrifuged, the old medium was discarded, the cells was washed once with DMEM medium (without serum), and centrifuged to remove the supernatant. Cells were resuspended with DMEM medium (without serum). […]. A cell suspension at a density of 1.1 x 10^4 viable cells/mL was prepared using DMEM medium (without serum) and 90 µL of the cell suspension was added to 96-well clear flat-bottom black-walled cell culture plate wells (Corning, Cat. No. #3603) to yield a cell density of 1000 viable cells/well in the plate. A control group without cells, without compounds, and with complete medium only (i.e., culture medium control) was set up, and a control group without compounds and with cells (i.e., cell control) was set up. The plates were incubated overnight in a cell incubator.
A DMSO stock solution of 10 mM compound was first serially diluted at a 3.16-fold dilution ratio with DMSO (Sigma, Cat. No. #D2650) to a ninth concentration and a tenth concentration of DMSO control without compound was set. DMSO solutions containing different concentrations of the compound were then diluted a 10-fold dilution ratio with PBS (Solarbio company, Cat. No. #P1020) to achieve a DMSO content of 10% in each concentration of the compound solution. Finally, 10 µL of the above solution was added to the corresponding cell culture plate to achieve a starting concentration of 100 µM compound, a 3.16-fold dilution ratio of adjacent concentrations, and a DMSO content of 1% in the cell culture plate. The plates were maintained in a cell incubator for an additional 120 hours.
After 120 hours, the CellTiter-Glo reagent (Promega, Cat. No. #G7572) was thawed and the plate was equilibrated at room temperature for 30 min. Then, 100 µL CellTiter-Glo was added to each well of the plate and shaken on an orbital shaker for 5 min to fully lyse the cells. The plate was placed at room temperature for 20 min to stabilize the cold light signal, and the cold light value of each well was scanned with a multifunctional microplate reader (Molecular Devices, Spectramax M3) at full wavelength.
The compound of the present invention and ADU-S100 (MCE, Cat. No. #HY12885A) were used as controls: Clofarabine (Wuhu Huaren Technology, Cat. No. #HR-00701002), Cladribine (CSNpharm, Cat. No. #CSN10004), Gemcitabine Hydrochloride (Shaoyuan, Cat. No. #SY014538), Gemcitabine Prodrug LY2334737 (home-made). […]
For orientation: Cellular ATP, detected with luciferase, serves as a proxy for viable cell number.

For another assay, the system named is A20. In words: Inhibition of tumor cell line proliferation (Table 3), A20. The format is cell-based. As to conditions: A20, Mouse B lymphoma cells.
For a further assay, the system named is A375. As to the kind of experiment: Inhibition of tumor cell line proliferation (Table 3), A375. It counts as cell-based. The following applies: A-375; A375, Human melanoma cells.
The subject of a further assay is FaDu. As to the kind of experiment: Inhibition of tumor cell line proliferation (Table 3), FaDu. As to conditions: Human pharyngeal squamous carcinoma cell. It counts as cell-based.
The test system of another assay is 4T1. In words: Inhibition of tumor cell line proliferation (Table 3), 4T1. The following applies: 4T1, Mouse breast cancer cells. It counts as cell-based.
The subject of assay [2] is CT26 cells. As to the kind of experiment: CT26 syngeneic mouse bilateral transplanted tumor model. The following applies: left (untreated) tumor; 50 µg compound/mouse (2.5 mg/kg) intratumorally into right flank on days 0 and 4; day 13 after treatment. It counts as in vivo, BALB/c mice. How it is done:
When tumors grew to an average volume of 100 mm^3, treatments were randomized and started based on tumor size and mouse body weight. The first day of dosing was Day 0. Two doses were administered, 50 µg compound/mouse (i.e., 2.5 mg/kg) was injected intratumorally into the right flank on days 0 and 4, and the same volume of PBS (Hyclone Company, Cat. No. #SH30258.01) was used as a control. The left tumor was left untreated. Control mice were sacrificed after 13 days of dosing and treated mice were sacrificed 21 days later. During the experiment, the tumor volume and body weight were measured three times a week on the left and right sides, and the tumor volume was calculated as V = D × d × d/2 (wherein D represents the long diameter of the tumor and d represents the short diameter of the tumor).

The test system of assay [3] is lymphoma Raji-hClaudin 18.2 cells. In words: Inhibition of Raji-hClaudin 18.2 cell proliferation (CTG assay). The format is cell-based. The procedure: Raji-hClaudin 18.2 cells (provided by Elpiscience) were cultured at 37°C, 5% CO2 and 95% humidity in RPMI 1640 + 10% FBS (ExCell Bio, Cat. No. #FND500) + 10 ug/mL Blasticidin (Beyotime, Cat. No. #ST-018), the cells in logarithmic growth phase were harvested and counted, and cell viability was measured using Countstar automated cell counter based on classical trypan blue staining principle to ensure that the cell viability was above 90%. The cell concentration was adjusted, 135 µL of cell suspension was added into 96 well clear flat bottom black wall plate (Corning, Cat. No. #3904), 10000/well, and the cells were incubated in 96 well plate at 37°C and 5% CO2.
The cells in the 96 well plates that had been dosed were incubated at 37°C, 5% CO2 for 5 days before performing CTG assay. The plate was equilibrated to room temperature for 30 min and CTG Reagent (CellTiter-Glo® Luminescent Cell Viability Assay (Promega, Cat. No. #G7573) was melt, 50 µL of CTG Solution was added to each well, and shaked on an orbital shaker for 2 min to lyse the cells. The plate was left at room temperature for 10 min to stabilize the cold light signal and the cold light value was read (EnVision ® Multifunctional Plate Reader, PerkinElmer#2105). [formula] […]

Each structure is given as a SMILES string. Structures can show the parent of a compound that is named as a salt.

Regarding `Nc1nc2c(ncn2[C@@H]2O[C@@H]3CO[P@@](=O)(S)O[C@H]4[C@H](F)[C@H](n5cnc6c(N)nc(Cl)nc65)O[C@@H]4CO[P@@](=O)(S)O[C@@H]2[C@@H]3O)c(=O)[nH]1` [CDN-3, (2',3')-cyclo-(Rp,Rp)-[2'-O-thiophosphodiester-guanosine]-[3'-O-thiophosphodiester-2-chloro-2'-deoxy-2'-fluoro-beta-adenosine]diammonium salt], the IC50 is < 1000 nM with CT26 cells [1] (Mus musculus, CT26, 120 h, read-out: CT-26 activity); 32 nM with A20; 206 nM with A375; 499 nM in the assay with FaDu; 2270 nM in the assay on 4T1; 131 nM in assay [3] (120 h, Raji-hClaudin 18.2, 5 days incubation, top concentration 600 nM). Besides, in the assay with CT26 cells [1] (superior to ADU-S100), the “inhibitory ability on growth of CT26 tumor cells in vitro (in words)” value is recorded as “particularly significant inhibitory ability”. Also, the “growth inhibition rates of left tumors” value in the assay with CT26 cells [2] is given as 91.2%. Moreover, the “inhibition effects on Raji-hClaudin 18.2 cell proliferation (in words)” value in assay [3] was “strong inhibition effects”.
